Results: patent US11034725B2, “Compositions and methods for treating cardiovascular disease” (Genentech, Inc., priority 2016, dated 2021)
Where two headings read alike, the source gives them in different places. Bridge positions count the residues as written; N and C are the ends. Square brackets hold non-standard residues; d marks the D form. Peptide text beside a SMILES is read from it. * marks the point of attachment. hArg = N=C(N)NCCCC[C@H](N)C(=O)O; Cit = NC(=O)NCCC[C@H](N)C(=O)O; Pentanoyl = CCCCC(=O)*

Legend:
PCSK9 = PCSK9 (Homo sapiens, UniProt Q8NBP7); experiment: PCSK9/EGF(A) TR-FRET binding assay; conditions: for IC50: TR-FRET, read-out: PCSK9/EGF(A) IC50
Sequence of PCSK9 (Q8NBP7 153-692): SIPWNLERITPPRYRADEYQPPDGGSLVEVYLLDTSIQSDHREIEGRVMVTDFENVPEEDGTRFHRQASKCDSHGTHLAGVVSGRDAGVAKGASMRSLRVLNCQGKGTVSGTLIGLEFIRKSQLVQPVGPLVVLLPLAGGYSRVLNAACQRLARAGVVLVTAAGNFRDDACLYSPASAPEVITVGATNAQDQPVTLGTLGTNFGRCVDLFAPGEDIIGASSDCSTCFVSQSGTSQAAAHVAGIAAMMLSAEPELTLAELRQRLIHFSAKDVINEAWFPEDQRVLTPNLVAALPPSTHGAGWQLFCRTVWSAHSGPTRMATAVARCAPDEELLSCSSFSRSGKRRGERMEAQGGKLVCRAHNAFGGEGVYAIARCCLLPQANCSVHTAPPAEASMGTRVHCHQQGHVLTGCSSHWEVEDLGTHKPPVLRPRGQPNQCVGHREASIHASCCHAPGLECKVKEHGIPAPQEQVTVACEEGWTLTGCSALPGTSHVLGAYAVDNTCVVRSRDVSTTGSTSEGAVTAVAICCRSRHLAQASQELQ
Sequence of PCSK9 (Q8NBP7 31-152 partner limits assumed): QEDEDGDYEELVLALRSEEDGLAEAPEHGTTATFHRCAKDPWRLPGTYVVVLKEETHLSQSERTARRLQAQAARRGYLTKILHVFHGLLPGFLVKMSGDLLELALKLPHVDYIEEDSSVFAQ

His-EGF(A)-Fc = His-EGF(A)-Fc TR-FRET counterscreen
PCSK9Δhelix = target: T1, PCSK9Δhelix (Homo sapiens, UniProt Q8NBP7); experiment: PCSK9Δhelix/Ab20 TR-FRET binding assay; conditions: for IC50: TR-FRET, read-out: PCSK9Δhelix/Ab20 IC50
T1 construct: Human PCSK9 construct M1-Q692 with an engineered TEV site (residue deletion Y166, R167); made in house; host or cells: CHO
T1 sequence (Q8NBP7 with tags, fused parts or gaps limits assumed): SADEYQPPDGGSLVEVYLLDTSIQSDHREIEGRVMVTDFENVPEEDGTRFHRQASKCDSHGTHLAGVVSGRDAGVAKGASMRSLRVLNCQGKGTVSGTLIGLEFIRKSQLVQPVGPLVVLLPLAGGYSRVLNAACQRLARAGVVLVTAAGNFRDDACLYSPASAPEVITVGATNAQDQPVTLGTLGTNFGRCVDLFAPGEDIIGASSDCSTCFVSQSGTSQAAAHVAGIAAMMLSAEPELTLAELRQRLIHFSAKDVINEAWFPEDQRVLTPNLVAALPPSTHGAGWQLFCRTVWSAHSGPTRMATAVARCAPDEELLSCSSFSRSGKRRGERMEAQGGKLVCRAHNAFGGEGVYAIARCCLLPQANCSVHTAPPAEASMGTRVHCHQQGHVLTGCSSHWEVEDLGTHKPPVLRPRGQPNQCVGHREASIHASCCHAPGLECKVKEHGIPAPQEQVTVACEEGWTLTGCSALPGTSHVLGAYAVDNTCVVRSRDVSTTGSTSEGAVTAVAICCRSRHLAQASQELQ
T1 sequence (Q8NBP7 31-152 partner limits assumed): as the sequence (Q8NBP7 31-152 partner limits assumed) above

[1] = Table 8D, disulfide-cyclized extension peptides
[2] = TR-FRET counterscreen, Table 8D, * = some inhibition at highest concentrations, not sufficient to fit an IC50
[3] = TR-FRET counterscreen, Table 8E, additional compounds

Row | Compound | IC50 (PCSK9; [1]) [µM] | IC50 (His-EGF(A)-Fc; [2]) [µM] | IC50 (PCSK9Δhelix; [1]) [µM] | IC50 (PCSK9; Table 8E, additional compounds) [µM] | IC50 (His-EGF(A)-Fc; [3]) [µM] | also measured
1 | CC[C@H](C)[C@@H]1NC(=O)[C@H](C)NC(=O)[C@H](CCC(N)=O)NC(=O)[C@H](CC(C)C)NC(=O)[C@H](CC(N)=O)NC(=O)[C@H](Cc2c[nH]c3ccccc23)NC(=O)[C@@H]2CCCN2C(=O)[C@H](CC(C)C)NC(=O)[C@H](CCCNC(=N)N)NC(=O)[C@@H](NC(C)=O)CSSC[C@@H](C(N)=O)NC(=O)[C@@H]2CCCN2C(=O)[C@H](CC(C)C)NC(=O)CNC1=O [Compound 72] (Ac-CRLPWNLQAIGLPC-NH2; disulfide 1-14) | > 50 | > 50 | 39.6 |  |  | 
2 | CC[C@H](C)[C@@H]1NC(=O)[C@H](CCCNC(=N)N)NC(=O)[C@H](CCC(N)=O)NC(=O)[C@H](CC(C)C)NC(=O)[C@H](CC(N)=O)NC(=O)[C@H](Cc2c[nH]c3ccccc23)NC(=O)[C@@H]2CCCN2C(=O)[C@H](CC(C)C)NC(=O)[C@H](CCCNC(=N)N)NC(=O)[C@@H](NC(C)=O)CSSC[C@@H](C(N)=O)NC(=O)[C@@H]2CCCN2C(=O)[C@H](CC(C)C)NC(=O)[C@H](C)NC1=O [Compound 70] (Ac-CRLPWNLQRIALPC-NH2; disulfide 1-14) | > 50 | > 50 | 7.26 |  |  | 
3 | CC[C@H](C)[C@@H]1NC(=O)[C@H](CCCNC(=N)N)NC(=O)[C@H](CCC(N)=O)NC(=O)[C@H](CC(C)C)NC(=O)[C@H](CC(N)=O)NC(=O)[C@H](Cc2c[nH]c3ccccc23)NC(=O)[C@@H]2CCCN2C(=O)[C@H](CC(C)C)NC(=O)[C@H](CCCNC(=N)N)NC(=O)[C@@H](NC(C)=O)CSSC[C@@H](C(N)=O)NC(=O)CNC(=O)[C@H](CC(C)C)NC(=O)CNC1=O [Compound 80] (Ac-CRLPWNLQRIGLGC-NH2; disulfide 1-14) | > 50 | > 50 |  |  |  | 
4 | CC[C@H](C)[C@@H]1NC(=O)[C@H](CCCNC(N)=O)NC(=O)[C@H](CCC(N)=O)NC(=O)[C@H](CC(C)C)NC(=O)[C@H](CC(N)=O)NC(=O)[C@H](Cc2c[nH]c3ccccc23)NC(=O)[C@@H]2CCCN2C(=O)[C@H]([C@@H](C)CC)NC(=O)[C@H](Cc2ccccc2)NC(=O)[C@@H](NC(=O)CNC(=O)[C@H](CO)NC(C)=O)CSSC[C@@H](C(N)=O)NC(=O)[C@@H]2CCCN2C(=O)[C@H](CC(C)C)NC(=O)CNC1=O [Compound 36] (Ac-SGCFIPWNLQ[Cit]IGLPC-NH2; disulfide 3-16) | > 50 | > 50 | > 50 |  |  | 
5 | CCCCC(=O)N[C@@H](Cc1c[nH]c2ccccc12)C(=O)N[C@@H](CC(N)=O)C(=O)N[C@@H](CC(C)C)C(=O)N[C@H](C(=O)N[C@@H](CCCNC(=N)N)C(=O)N[C@H](C(=O)NCC(=O)N[C@@H](CC(C)C)C(=O)N[C@@H](CC(=O)O)C(=O)N[C@@H](CCCNC(=N)N)C(N)=O)[C@@H](C)CC)C(C)C [Compound 178] (Pentanoyl-WNLVRIGLDR-NH2) |  |  |  | ≥ 50 | ≥ 50 | IC50 (PCSK9Δhelix; Table 8E, additional compounds): 18 µM
6 | CC[C@H](C)[C@@H]1NC(=O)[C@H](CCCNC(=N)N)NC(=O)[C@H](CCC(N)=O)NC(=O)[C@H](CC(C)C)NC(=O)[C@@H](CC(N)=O)NC(=O)[C@H](Cc2c[nH]c3ccccc23)NC(=O)[C@@H]2CCCN2C(=O)[C@H](CC(C)C)NC(=O)[C@H](CCCNC(=N)N)NC(=O)[C@@H](NC(C)=O)CSSC[C@@H](C(N)=O)NC(=O)[C@@H]2CCCN2C(=O)[C@H](CC(C)C)NC(=O)CNC1=O [Compound 105] (Ac-CRLPW[dN]LQRIGLPC-NH2; disulfide 1-14) | > 50 | > 50 | > 50 |  |  | 
7 | CC[C@H](C)[C@@H]1NC(=O)[C@H](CCCNC(=N)N)NC(=O)[C@H](CCCCN)NC(=O)[C@H](CC(C)C)NC(=O)[C@H](CC(N)=O)NC(=O)[C@H](Cc2c[nH]c3ccccc23)NC(=O)[C@H](CC(C)C)NC(=O)[C@@H](NC(=O)[C@H](Cc2ccccc2)NC(C)=O)CSSC[C@@H](C(=O)N[C@@H](CCC(=O)O)C(=O)N[C@@H](Cc2ccc(O)cc2)C(N)=O)NC(=O)[C@H](CCC(N)=O)NC(=O)[C@H](CO)NC(=O)CNC1=O [Compound 95] (Ac-FCLWNLKRIGSQCEY-NH2; disulfide 2-13) | > 50 | > 50 | 12.7 |  |  | 
8 | CC[C@H](C)[C@@H]1NC(=O)[C@H](CCCNC(=N)N)NC(=O)[C@H](CCCCN)NC(=O)[C@H](CC(C)C)NC(=O)[C@H](CC(N)=O)NC(=O)[C@H](Cc2c[nH]c3ccccc23)NC(=O)[C@@H](NC(=O)CNC(=O)CNC(=O)[C@H](CO)NC(=O)CNC(=O)[C@@H](NC(=O)[C@H](Cc2c[nH]c3ccccc23)NC(=O)[C@H](CC(=O)O)NC(=O)[C@H](CC(C)C)NC(=O)[C@H](Cc2ccc(O)cc2)NC(=O)[C@H](CCC(=O)O)NC(=O)[C@H](CCC(=O)O)NC(=O)[C@H](Cc2c[nH]c3ccccc23)NC(=O)[C@H](CO)NC(=O)[C@@H](NC(=O)[C@H](Cc2ccccc2)NC(=O)[C@@H](NC(=O)[C@@H](NC(C)=O)[C@@H](C)O)C(C)C)[C@@H](C)O)C(C)C)CSSC[C@@H](C(N)=O)NC(=O)CNC(=O)[C@H](CCC(N)=O)NC(=O)[C@H](CO)NC(=O)CNC1=O [Compound 14] (Ac-TVFTSWEEYLDWVGSGGCWNLKRIGSQGC-NH2; disulfide 18-29) |  |  |  |  |  | inhibition in the PCSK9/EGF(A) binding assay (PCSK9): potent inhibitors; IC50 (PCSK9; Example 7): 0.009 µM; IC50 (His-EGF(A)-Fc; counterscreen, Example 7): > 50 µM; inhibition in the PCSK9Δhelix/Ab20 binding assay (PCSK9Δhelix): potent inhibitors; IC50 (PCSK9Δhelix; Example 7): 0.001 µM
9 | Ac-DLMPWNLKRIGLLR-NH2 [Compound 158] |  |  |  | ≥ 50 | ≥ 50 | IC50 (PCSK9Δhelix; Table 8E, additional compounds): 12 µM
10 | CC[C@H](C)[C@@H]1NC(=O)[C@H](CCCNC(=N)N)NC(=O)[C@H](CCC(N)=O)NC(=O)[C@H](CC(C)C)NC(=O)[C@H](CC(N)=O)NC(=O)[C@H](Cc2c[nH]c3ccccc23)NC(=O)[C@@H]2CCCN2C(=O)[C@H](CC(C)C)NC(=O)[C@H](CCCNC(=N)N)NC(=O)[C@@H](NC(C)=O)CSSC[C@@H](C(N)=O)NC(=O)[C@H]2CCCN2C(=O)[C@H](CC(C)C)NC(=O)CNC1=O [Compound 99] (Ac-CRLPWNLQRIGL[dP]C-NH2; disulfide 1-14) | > 50 | > 50 | 1.3 |  |  | 
11 | CCCCC(=O)N[C@@H](Cc1c[nH]c2ccccc12)C(=O)N[C@@H](CC(N)=O)C(=O)N[C@@H](CC(C)C)C(=O)N[C@H](C(=O)N[C@@H](CCCCNC(=N)N)C(=O)N[C@H](C(=O)NCC(=O)N[C@@H](CC(C)C)C(=O)N[C@@H](CC(C)C)C(=O)N[C@@H](CCCNC(=N)N)C(=O)O)[C@@H](C)CC)C(C)C [Compound 195, n-BuC(O)-WNLV(homoR)IGLLR] (Pentanoyl-WNLV[hArg]IGLLR-OH) |  |  |  | 22 | 45 | IC50 (PCSK9Δhelix; Table 8E, additional compounds): 1.7 µM
12 | CC[C@H](C)[C@H](NC(=O)[C@H](CCCCNC(=N)N)NC(=O)[C@@H](NC(=O)[C@H](CC(C)C)NC(=O)[C@H](CC(N)=O)NC(=O)[C@@H](N)Cc1c[nH]c2ccccc12)C(C)C)C(=O)NCC(N)=O [Compound 236, WNLV(homoR)IG-NH2] (H-WNLV[hArg]IG-NH2) |  |  |  | ≥ 50 | ≥ 50 | IC50 (PCSK9Δhelix; Table 8E, additional compounds): 22 µM
13 | CCCCC(=O)N[C@@H](Cc1c[nH]c2ccccc12)C(=O)N[C@@H](CC(N)=O)C(=O)N[C@@H](CC(C)C)C(=O)N[C@H](C(=O)N[C@@H](CCCNC(=N)N)C(=O)N[C@H](C(=O)NCC(=O)N[C@@H](CC(C)C)C(=O)N[C@@H](CCC(=O)O)C(=O)N[C@@H](CCCNC(=N)N)C(N)=O)[C@@H](C)CC)C(C)C [Compound 177] (Pentanoyl-WNLVRIGLER-NH2) |  |  |  | ≥ 50 | ≥ 50 | 
14 | Ac-MDSFPGWNLVRIGLLR-NH2 [Compound 153] |  |  |  | 12 | > 50 | 
15 | Ac-DSYPGWNLVRIGLLR-NH2 [Compound 155] |  |  |  | 11 | > 50 | 
16 | Ac-ESYPGWNLVRIGLLR-NH2 [Compound 156] |  |  |  | 11 | > 50 | 
17 | CC[C@H](C)[C@H](NC(=O)[C@H](CCCCNC(=N)N)NC(=O)[C@H](CCCCN)NC(=O)[C@H](CC(C)C)NC(=O)[C@H](CC(N)=O)NC(=O)[C@H](Cc1c[nH]c2ccccc12)NC(=O)CNC(=O)[C@@H]1CCCN1C(=O)[C@H](Cc1ccccc1)NC(=O)[C@H](CO)NC(=O)[C@H](CCC(=O)O)NC(=O)[C@H](CCSC)NC(C)=O)C(=O)NCC(=O)N[C@@H](CC(C)C)C(=O)N[C@@H](CC(C)C)C(=O)N[C@@H](CCCNC(=N)N)C(N)=O [Compound 233] (Ac-MESFPGWNLK[hArg]IGLLR-NH2) |  |  |  | 3.1 | ≥ 50 | 
18 | Ac-SFAFPGWNLVRIGLLR-NH2 [Compound 154] |  |  |  | 11 | > 50 | 
19 | CC[C@H](C)[C@@H]1NC(=O)[C@H](CCCNC(=N)N)NC(=O)CNC(=O)[C@H](CC(C)C)NC(=O)[C@H](CC(N)=O)NC(=O)[C@H](Cc2c[nH]c3ccccc23)NC(=O)[C@@H](NC(=O)CNC(=O)[C@H](CO)NC(=O)CNC(=O)[C@@H](NC(=O)[C@H](Cc2c[nH]c3ccccc23)NC(=O)[C@H](CC(=O)O)NC(=O)[C@H](CC(C)C)NC(=O)[C@H](Cc2ccc(O)cc2)NC(=O)[C@H](CCC(=O)O)NC(=O)[C@H](CCC(=O)O)NC(=O)[C@H](Cc2c[nH]c3ccccc23)NC(=O)[C@H](CO)NC(=O)[C@@H](NC(=O)[C@H](Cc2ccccc2)NC(=O)[C@@H](NC(=O)[C@@H](NC(C)=O)[C@@H](C)O)C(C)C)[C@@H](C)O)C(C)C)CSSC[C@@H](C(N)=O)NC(=O)CNC(=O)[C@H](CCC(N)=O)NC(=O)[C@H](CO)NC(=O)CNC1=O [Compound 11] (Ac-TVFTSWEEYLDWVGSGCWNLGRIGSQGC-NH2; disulfide 17-28) |  |  |  |  |  | IC50 (PCSK9; Example 7): 0.34 µM; IC50 (His-EGF(A)-Fc; counterscreen, Example 7): > 50 µM
